Reference: PubChem BioAssay AID1963983 (Molecular Pharmacology Branch, DTP, NCI, 2024)

Tested on: 186277-243-T-J2-PDC multi-cell spheroid viability
Assay: Anticancer human tumor 186277-243-T-J2-PDC patient-derived colon adenocarcinoma cell line growth inhibition [PI3K]
Conditions: for viability, T/C: stronger effect = lower value
Procedure, shortened: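 Three cell types, namely tumor cells, endothelial cells and mesenchymal stem cells, formed each spheroid. Combinations with four PI3K inhibitors were screened at clinically achievable concentrations decreasing by half-log, and spheroid viability was recorded.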

[1] = curve of first compound, second compound 0.0316 µM
[2] = curve of first compound, second compound 0.1 µM
[3] = curve of first compound, second compound 0.316 µM
[4] = curve of first compound, second compound 1 µM
[5] = second compound 0.0316 µM, first compound 0.0316 µM
[6] = second compound 0.0316 µM, first compound 0.1 µM
[7] = second compound 0.0316 µM, first compound 0.316 µM
[8] = second compound 0.0316 µM, first compound 1 µM
[9] = second compound 0.0316 µM, first compound 3.16 µM
[10] = second compound 0.0316 µM, first compound 10 µM
[11] = second compound 0.1 µM, first compound 0.0316 µM
[12] = second compound 0.1 µM, first compound 0.1 µM
[13] = second compound 0.1 µM, first compound 0.316 µM
[14] = second compound 0.1 µM, first compound 1 µM
[15] = second compound 0.1 µM, first compound 3.16 µM
[16] = second compound 0.1 µM, first compound 10 µM
[17] = second compound 0.316 µM, first compound 0.0316 µM
[18] = second compound 0.316 µM, first compound 0.1 µM
[19] = second compound 0.316 µM, first compound 0.316 µM
[20] = second compound 0.316 µM, first compound 1 µM
[21] = second compound 0.316 µM, first compound 3.16 µM
[22] = second compound 0.316 µM, first compound 10 µM
[23] = second compound 1 µM, first compound 0.0316 µM
[24] = second compound 1 µM, first compound 0.1 µM
[25] = second compound 1 µM, first compound 0.316 µM
[26] = second compound 1 µM, first compound 1 µM
[27] = second compound 1 µM, first compound 3.16 µM
[28] = second compound 1 µM, first compound 10 µM
[29] = curve of first compound, second compound 0.00316 µM
[30] = curve of first compound, second compound 0.01 µM
[31] = second compound 0.00316 µM, first compound 0.0316 µM
[32] = second compound 0.00316 µM, first compound 0.1 µM
[33] = second compound 0.01 µM, first compound 0.0316 µM
[34] = second compound 0.01 µM, first compound 0.1 µM
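Also: spheroids exposed to compounds for seven days before viability reading.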
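For viability, T/C in this document: 100% = DMSO vehicle control viability.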

With `CC(C)NCC(C(=O)N1CCN(c2ncnc3c2C(C)CC3O)CC1)c1ccc(Cl)cc1` (stereo not drawn) + CC(Nc1ncnc2nc[nH]c12)c1cc2cccc(Cl)c2c(=O)n1-c1ccccc1 the IC50 [1] was 2280 nM, the IC50 [2] was 1060 nM and the IC50 [3] was 1110 nM. It also gave an IC50 [4] of 815 nM, an IC50 (curve of first compound, second compound 3.16 µM) of 539 nM and an IC50 (curve of first compound, second compound 10 µM) of 466 nM. The viability, T/C [5] was 90.7%, the viability, T/C [6] was 78.6% and the viability, T/C [7] was 80.1%. The viability, T/C [8] was 60.4%, the viability, T/C [9] was 45.4% and the viability, T/C [10] was 31.2%. It also gave a viability, T/C [11] of 82.5%, a viability, T/C [12] of 94% and a viability, T/C [13] of 70.5%. It also gave a viability, T/C [14] of 50%, a viability, T/C [15] of 40.1% and a viability, T/C [16] of 28.2%. For the same compound, the viability, T/C [17] was 85.6%, the viability, T/C [18] was 92.2% and the viability, T/C [19] was 68.8%. It also gave a viability, T/C [20] of 48.9%, a viability, T/C [21] of 42.5% and a viability, T/C [22] of 26.3%. It also gave a viability, T/C [23] of 96.7%, a viability, T/C [24] of 77.5% and a viability, T/C [25] of 63.8%. It also gave a viability, T/C [26] of 49.6%, a viability, T/C [27] of 30% and a viability, T/C [28] of 23%. For the same compound, the viability, T/C (second compound 3.16 µM, first compound 0.0316 µM) was 96.5%, the viability, T/C (second compound 3.16 µM, first compound 0.1 µM) was 92.8% and the viability, T/C (second compound 3.16 µM, first compound 0.316 µM) was 58.7%. It also gave a viability, T/C (second compound 3.16 µM, first compound 1 µM) of 36.8%, a viability, T/C (second compound 3.16 µM, first compound 3.16 µM) of 30.9% and a viability, T/C (second compound 3.16 µM, first compound 10 µM) of 17.6%. For the same compound, the viability, T/C (second compound 10 µM, first compound 0.0316 µM) was 77.3%, the viability, T/C (second compound 10 µM, first compound 0.1 µM) was 78.8% and the viability, T/C (second compound 10 µM, first compound 0.316 µM) was 54.2%. For the same compound, the viability, T/C (second compound 10 µM, first compound 1 µM) was 36.3%, the viability, T/C (second compound 10 µM, first compound 3.16 µM) was 21.4% and the viability, T/C (second compound 10 µM, first compound 10 µM) was 14.4%.

`C#Cc1c(F)ccc2cc(O)cc(-c3ncc4c(N5CC6CCC(C5)N6)nc(OCC56CCCN5CC(F)C6)nc4c3F)c12` (stereo not drawn) was tested, and the viability, T/C (compound 0.0316 µM) was 90.4% [middle of 4 runs], the viability, T/C (compound 0.1 µM) was 40.8% [middle of 4 runs] and the viability, T/C (compound 0.316 µM) was 25.4% [middle of 4 runs]. For the same compound, the viability, T/C (compound 1 µM) was 15.6% [middle of 4 runs], the viability, T/C (compound 3.16 µM) was 14.8% [middle of 4 runs] and the viability, T/C (compound 10 µM) was 11.7% [middle of 4 runs]. For the same compound, the IC50 (curve of compound) was 80.8 nM [middle of 4 runs].

Compound `Cn1ncc(Cl)c1-c1cc(C(=O)NC(CN)Cc2cccc(F)c2)sc1Cl` (stereo not drawn) + COc1c(OCCCN2CCOCC2)ccc2c3n(c(=NC(=O)c4cnc(N)nc4)nc12)CCN3 has an IC50 [29] of 224 nM, an IC50 [30] of 225 nM and an IC50 [1] of 46.8 nM. For the same compound, the IC50 [2] was < 31.6 nM, the IC50 [3] was < 31.6 nM and the IC50 [4] was < 31.6 nM. It also gave a viability, T/C [31] of 93%, a viability, T/C [32] of 63.4% and a viability, T/C (second compound 0.00316 µM, first compound 0.316 µM) of 42.9%. The viability, T/C (second compound 0.00316 µM, first compound 1 µM) was 30.4%, the viability, T/C (second compound 0.00316 µM, first compound 3.16 µM) was 20.4% and the viability, T/C (second compound 0.00316 µM, first compound 10 µM) was 9.36%. For the same compound, the viability, T/C [33] was 86.4%, the viability, T/C [34] was 71.8% and the viability, T/C (second compound 0.01 µM, first compound 0.316 µM) was 38.2%. The viability, T/C (second compound 0.01 µM, first compound 1 µM) was 23.1%, the viability, T/C (second compound 0.01 µM, first compound 3.16 µM) was 14.4% and the viability, T/C (second compound 0.01 µM, first compound 10 µM) was 4.57%. The viability, T/C [5] was 58.3%, the viability, T/C [6] was 33.6% and the viability, T/C [7] was 23.5%. It also gave a viability, T/C [8] of 13.7%, a viability, T/C [9] of 10.4% and a viability, T/C [10] of 2.08%. For the same compound, the viability, T/C [11] was 21.1%, the viability, T/C [12] was 13.3% and the viability, T/C [13] was 8.18%. It also gave a viability, T/C [14] of 6.79%, a viability, T/C [15] of 6.13% and a viability, T/C [16] of 1.39%. For the same compound, the viability, T/C [17] was 4.19%, the viability, T/C [18] was 4.53% and the viability, T/C [19] was 2.93%. It also gave a viability, T/C [20] of 5.08%, a viability, T/C [21] of 3.95% and a viability, T/C [22] of 0.44%. For the same compound, the viability, T/C [23] was 2.43%, the viability, T/C [24] was 1.6% and the viability, T/C [25] was 2.02%. The viability, T/C [26] was 1.95%, the viability, T/C [27] was 1.4% and the viability, T/C [28] was 0.21%.

In the case of `CC(=O)c1c(C)c2cnc(Nc3ccc(N4CCNCC4)cn3)nc2n(C2CCCC2)c1=O` + COc1c(OCCCN2CCOCC2)ccc2c3n(c(=NC(=O)c4cnc(N)nc4)nc12)CCN3, the IC50 [29] is reported as > 100 nM, the IC50 [30] is reported as > 100 nM and the IC50 [1] is reported as 57.4 nM. The IC50 [2] was < 0.316 nM, the IC50 [3] was < 0.316 nM and the IC50 [4] was < 0.316 nM. The viability, T/C (second compound 0.00316 µM, first compound 0.000316 µM) was 101%, the viability, T/C (second compound 0.00316 µM, first compound 0.001 µM) was 107% and the viability, T/C (second compound 0.00316 µM, first compound 0.00316 µM) was 97.3%. It also gave a viability, T/C (second compound 0.00316 µM, first compound 0.01 µM) of 94.9%, a viability, T/C [31] of 112% and a viability, T/C [32] of 113%. The viability, T/C (second compound 0.01 µM, first compound 0.000316 µM) was 110%, the viability, T/C (second compound 0.01 µM, first compound 0.001 µM) was 102% and the viability, T/C (second compound 0.01 µM, first compound 0.00316 µM) was 87.9%. The viability, T/C (second compound 0.01 µM, first compound 0.01 µM) was 91.7%, the viability, T/C [33] was 117% and the viability, T/C [34] was 99.5%. It also gave a viability, T/C (second compound 0.0316 µM, first compound 0.000316 µM) of 64.2%, a viability, T/C (second compound 0.0316 µM, first compound 0.001 µM) of 67.2% and a viability, T/C (second compound 0.0316 µM, first compound 0.00316 µM) of 68.8%. It also gave a viability, T/C (second compound 0.0316 µM, first compound 0.01 µM) of 58.9%, a viability, T/C [5] of 51.3% and a viability, T/C [6] of 47.2%. It also gave a viability, T/C (second compound 0.1 µM, first compound 0.000316 µM) of 15.6%, a viability, T/C (second compound 0.1 µM, first compound 0.001 µM) of 14.4% and a viability, T/C (second compound 0.1 µM, first compound 0.00316 µM) of 13.9%. The viability, T/C (second compound 0.1 µM, first compound 0.01 µM) was 17.4%, the viability, T/C [11] was 11.6% and the viability, T/C [12] was 13.2%. It also gave a viability, T/C (second compound 0.316 µM, first compound 0.000316 µM) of 3.72%, a viability, T/C (second compound 0.316 µM, first compound 0.001 µM) of 3.94% and a viability, T/C (second compound 0.316 µM, first compound 0.00316 µM) of 6.08%. The viability, T/C (second compound 0.316 µM, first compound 0.01 µM) was 4.53%, the viability, T/C [17] was 4.8% and the viability, T/C [18] was 5.23%. For the same compound, the viability, T/C (second compound 1 µM, first compound 0.000316 µM) was 3.84%, the viability, T/C (second compound 1 µM, first compound 0.001 µM) was 2.22% and the viability, T/C (second compound 1 µM, first compound 0.00316 µM) was 3.44%. It also gave a viability, T/C (second compound 1 µM, first compound 0.01 µM) of 3.39%, a viability, T/C [23] of 2.44% and a viability, T/C [24] of 1.63%.
